Laboratory results reported in patent US10774121B2, “Methods and compositions for treating neurodegenerative disorders and Alzheimer's Disease and improving normal memory” (The Regents of the University of California, priority 2006, dated 2020).
“Also recorded” adds a separate entry of the source.

Key:
Gαo [1] = target: T1, Gαo (Rattus norvegicus, UniProt P59215); test: Stimulation of 35S-GTPγS binding to Go by PS-1 cytoplasmic peptides in rat hippocampal membrane preparations; assay type: biochemical; details: peptides 200 μM; for stimulation of 35S-GTPγS binding to Go: rat hippocampal membranes
T1 construct: tissue Applied Cell Science, Rockville, Md; host or cells: rat hippocampal membranes, solubilized in CHAPS buffer
T1 sequence (P59215 whole entry): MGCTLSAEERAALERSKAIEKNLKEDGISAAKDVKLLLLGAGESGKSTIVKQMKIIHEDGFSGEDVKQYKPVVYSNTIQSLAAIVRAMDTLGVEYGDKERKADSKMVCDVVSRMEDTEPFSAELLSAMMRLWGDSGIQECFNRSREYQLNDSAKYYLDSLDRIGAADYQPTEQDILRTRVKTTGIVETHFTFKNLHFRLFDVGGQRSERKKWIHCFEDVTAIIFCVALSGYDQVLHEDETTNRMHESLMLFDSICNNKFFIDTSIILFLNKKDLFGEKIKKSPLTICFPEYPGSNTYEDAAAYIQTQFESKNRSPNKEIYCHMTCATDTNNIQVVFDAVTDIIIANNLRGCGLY
Text: To provide evidence that the GoA binding observed in FIG. 5A was directly to PS-1, and not to a co-immunoprecipitated, PS-associated protein the autonomous activation of Go by synthetic peptide fragments corresponding to cytoplasmic loops 1, 2, 3 and the carboxyl tail of PS-1 (in the 7-TM PS model) were investigated (see FIGS. 20B and C and Table 1). The peptides were individually tested for their ability to stimulate ^35S-GTPγS binding to Go in rat hippocampal membrane preparations.
(§1) The autonomous activation of G-proteins Gαo, Gαq and Gαs by oligopeptides corresponding to cytoplasmic loops 1, 2, 3 and the COOH tail of human PS-1 in the 7-TM PS model were examined. The peptides were individually tested for their ability to stimulate ^35S-GTPγS binding to each G-protein in rat hippocampal membrane preparations.
(§2) Rat hippocampal membranes (Applied Cell Science, Rockville, Md.) were solubilized in CHAPs buffer.
(§3) Peptides (200 μM) were incubated without pre-treatment with solubilized rat hippocampal membranes (50 μg) in the ^35S reaction mixture. Accumulation of γ-S GTP the ^35S-GTPγS was determined after immunoprecipitation with the specific anti-G Ab.

Gαq = target: T2, Gαq (Rattus norvegicus, UniProt P82471); test: Stimulation of 35S-GTPγS binding to Gq by PS-1 cytoplasmic peptides in rat hippocampal membrane preparations; assay type: biochemical; details: peptides 200 μM, rat hippocampal membranes
T2 sequence (P82471 1-359): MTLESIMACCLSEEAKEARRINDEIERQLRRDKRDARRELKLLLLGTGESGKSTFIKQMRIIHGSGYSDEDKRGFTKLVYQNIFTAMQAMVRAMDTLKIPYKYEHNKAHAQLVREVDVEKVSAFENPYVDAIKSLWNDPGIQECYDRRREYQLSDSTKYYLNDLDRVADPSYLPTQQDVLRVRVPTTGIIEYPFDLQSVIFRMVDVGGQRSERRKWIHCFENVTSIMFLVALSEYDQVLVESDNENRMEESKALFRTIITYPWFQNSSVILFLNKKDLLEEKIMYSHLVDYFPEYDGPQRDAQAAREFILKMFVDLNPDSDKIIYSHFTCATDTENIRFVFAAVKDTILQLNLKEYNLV
Experimental: as §1, §2, §3

Gαs = target: T3, Gαs (Rattus norvegicus, UniProt P63095); test: Stimulation of 35S-GTPγS binding to Gs by PS-1 cytoplasmic peptides in rat hippocampal membrane preparations; assay type: biochemical; details: peptides 200 μM, rat hippocampal membranes
T3 construct: tissue Applied Cell Science, Rockville, Md; host or cells: rat hippocampal membranes, solubilized in CHAPS buffer
T3 sequence (P63095 whole entry): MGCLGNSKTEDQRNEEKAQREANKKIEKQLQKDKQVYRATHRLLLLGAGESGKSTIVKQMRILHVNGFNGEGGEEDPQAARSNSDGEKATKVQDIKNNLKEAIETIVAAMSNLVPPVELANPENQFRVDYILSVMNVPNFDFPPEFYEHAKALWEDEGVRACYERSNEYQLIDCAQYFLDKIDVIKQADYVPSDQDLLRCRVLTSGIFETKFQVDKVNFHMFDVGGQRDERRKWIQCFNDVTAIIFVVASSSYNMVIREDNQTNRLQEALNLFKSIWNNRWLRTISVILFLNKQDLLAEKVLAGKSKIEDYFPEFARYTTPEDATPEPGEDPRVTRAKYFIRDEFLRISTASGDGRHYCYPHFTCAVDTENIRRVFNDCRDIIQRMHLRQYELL
Experimental: as §1, §2, §3

Aβ production = test: ELISA of Aβ produced in β-APP-only:PS-1-only co-culture extracts; assay type: cell-based, mouse; details: synthetic peptides 0-3 μM added at the time of the co-culture
Experimental: Co-cultures of β-APP-only and PS-1-only cells were carried out in the presence and absence of Peptide 1-80 (0-3 μM). ^35S-GTPγS assays were carried out on extracts as a measure of G-protein activation. The Aβ produced in these co-culture extracts was determined by ELISA.
ES-derived mouse cells (PS-1^−/−; PS-2^−/−) that expressed only small amounts of endogenous β-APP but no PS, were transiently transfected with cDNA for human β-APP to produce cells expressing excess human β-APP over mouse β-APP, and no PS-1 or PS-2 (β-APP-only cells). Embryonic (E18) mouse primary fibroblasts derived from β-APP-null mice, expressing only small amounts of endogenous PS-1 and PS-2, were transfected with cDNAs for human PS-1 to produce cells expressing excess human over mouse PS-1 but no β-APP (PS-1-only cells). The minigenes were co-transfected with PS-1 in the PS-only APP−/− fibroblasts to inhibit the endogenous mouse Gα under investigation in those cells. PS−/− ES cells were separately transfected with human β-APP cDNA (β-APP only cells) and the two types of cells were co-cultured for 24 hours. Cells were harvested and detergent-buffer extracts of the co-cultures were prepared. Determination of [^35S]GTPγS incorporation in these cultures was carried out in the presence and absence of each minigene: Aliquots each containing 100 μg total protein were reacted with ^35S-GTPγS and immunoprecipitation of each ^35S-GTPγS-treated extract was carried out with antibodies directed to the particular Gα under investigation. Specificity of binding of a particular Gα to PS-1 was established by blocking of GTPγS incorporation in the presence of the specific minigene inhibitor.
Co-culture of β-APP-only with PS-1-only cells was carried out as described above.
ELISA for the production of Aβ1-40 was carried out using sandwich ELISA kits (Biosource).

[2] = test system: protein tyrosine kinase activity; test: Protein tyrosine kinase ELISA on extracts of β-APP-transfected ES double-null cells mixed with PS-1-transfected DAMI cells; assay type: cell-based; details: 25 μg protein added, 0-20 min after mixing
Experimental: DAMI:ES cells: Equal numbers (0.5×10^6/ml) of β-APP 695 (Selkoe and Podlisny, 2002)-transfected ES double-null cells and PS-1 transfected DAMI cells were co-cultured at 37° C. for various times between 0-20 mins.
At several times between 0 and 20 min after mixing, an aliquot of each cell mixture was rapidly centrifuged, the culture medium was removed, and the cell pellet was suspended in 200 μl of extraction buffer (50 mM Tris, pH 8.0/150 mM NaCl/0.5% Nonidet-P40) containing protease inhibitors (1 mM 4-(2-aminoethyl) benzene sulfonyl fluoride hydrochloride (AEBSF)/1 μg/ml antipain/0.1 μg/ml pepstatin A/0.1 μg/ml leupeptin) and the phosphatase inhibitor sodium orthovanadate (0.1 mM). The mixture was sonicated with three bursts of 20 sec duration and then centrifuged. These extract supernatants were then used for Western blot and ELISA analyses as described below.
ELISAs Protein tyrosine kinase activity was measured by an Enzyme Linked Immunosorbent Assay (ELISA) using a tyrosine kinase assay kit (Upstate Biotechnology). A biotinylated substrate peptide containing tandem repeats of Poly (Glu4-Tyr) was incubated with supernatants of extracts of transfected cells mixed for different times ([…]) in the presence of non-radioactive ATP and a Mn^2+/Mg^2+ co-factor cocktail according to the manufacturer's protocols. A phosphotyrosine specific mouse monoclonal antibody (4G10) conjugated to horseradish peroxidase was used to detect the phosphorylated substrate by ELISA.
ES double-null cells transfected with β-APP were mixed with DAMI cells transfected with PS-1, and were co-cultured for various times between 0-20 min, using cell densities that ensured cell-cell contact. ELISA assays were then carried out on cell extracts to measure protein tyrosine kinase activity. […]

Gαo [3] = test: 35S-GTPγS incorporation after addition of β-APPs to cell cultures, immunoprecipitation with Gαo antibodies; assay type: cell-based, mouse
Experimental: In addition, water-soluble β-APP ectodomain itself (B-APPs), when added to cultures of PS-1-only cells, could also activate G-proteins in a dose-dependent manner. β-APPs was partially purified from conditioned media of baculovirus cultures over-expressing human β-APP. The final product (FIG. 18b, lane 1) had, in addition to β-APP, three major contaminating bands at 81 kDa, 55 kDa and 31 kDa that co-purified with the β-APP ectodomain. This partially purified β-APPs preparation was added in increasing amounts to PS-1-only APP^−/− fibroblasts. After 15 mins the cells from each well were harvested in extraction buffer, and detergent extracts (each containing 100 μg protein) were treated with ^35S-GTPγS. Activation of Gαo was assayed after immunoprecipitation of the activated ^35S-GTPγS-Gαo with the Gαo-specific antibodies. […] Furthermore, when partially purified β-APPs was added to untransfected ES (PS^−/−) cells, no increase in G-protein activation was observed by ^35S-GTPγS assays (FIG. 18A, curve 5), further implicating PS as a receptor for the β-APP ligand in the Gαo activation.
To confirm that it was indeed the β-APPs in the partially purified β-APPs preparation that was the ligand responsible for G-protein activation, and not one of the contaminants, β-APPs was removed from the preparation by treatment with MAb 348 to β-APP (see FIG. 18C, lane 2). This β-APPs-depleted solution at the same concentrations used for the non-depleted preparation, was added to the PS-1-only cells, which were then treated exactly as described above. […] In contrast, the β-APPs preparation similarly treated with an irrelevant IgG when added to PS-1-only cells, gave results that resembled those obtained with the untreated samples (FIG. 18A, curve 2).
(§4) ^35S-GTPγS Assays: Extract (100 μg of total protein) was mixed with an equal volume of GTPγS Buffer B (50 mM HEPES/NaOH pH 7.4, 40 μM GDP, 50 mM MgCl2, 100 mM NaCl) and reacted with 50 nM ^35S-GTPγS (1250 Ci/mmol, Perkin Elmer, Waltham, Mass.) for 60 min at RT. The reaction was stopped with 10× Stopping buffer (100 mM Tris-HCl, pH 8, 25 mM MgCl2, 100 mM NaCl, 20 mM GTP) followed by immunoprecipitation of the ^35S-GTPγS-Gαo complex with Ab against a particular Gα. The Ab-protein complex was absorbed to Protein A/G agarose for 90 min at RT and washed. The agarose beads were suspended in scintillation fluid (CytoScint, ICN) (5 ml) and counted in a Beckman Coulter LS 6000 SC scintillation counter for 3 min.

G-protein Go = test: 35S-GTPγS incorporation after addition of β-APPs to solubilized rat hippocampal membranes; assay type: biochemical
Experimental: Because the results so far described were obtained using only cultured cells transfected with human PS, binding of the endogenous rat PS proteins with rat Gαo present in rat hippocampal membranes was examined. […]
as §4, §2

## VFKTYNVAVD [ic2, PS-1 cytoplasmic loop 2 peptide]
Gαo [1]
  stimulation of 35S-GTPγS binding to Go: only background stimulation
Gαq
  stimulation of 35S-GTPγS binding to Gq: only background stimulation
Gαs
  stimulation of 35S-GTPγS binding to Gs: only background stimulation

## TDYLVQPFMDQLAFHQFYI [C(21-39), remaining 19 amino acids of the PS-1 cytoplasmic C-terminal tail]
Gαo [1]; listed as COOH-terminal peptide corresponding to residues 21-39
  stimulation of 35S-GTPγS binding to Go: failed to activate; also recorded: no detectable Go activation
Gαq
  stimulation of 35S-GTPγS binding to Gq: robust stimulation
Gαs
  stimulation of 35S-GTPγS binding to Gs: induced stimulation

## DEEEDEELTLKYGAK [Peptide 7, 15-mer of the PS-1 N-terminal domain]
Aβ production
  cell-cell interaction and Aβ production, ELISA: inhibits

## KYLPE [ic3, PS-1 cytoplasmic loop 3 peptide]
Gαo [1]
  stimulation of 35S-GTPγS binding to Go: robust stimulation
Gαo [1]; rat membranes
  increase in activation of 35S-GTPγS binding over samples without peptide: 200%
Gαq
  stimulation of 35S-GTPγS binding to Gq: robust stimulation
Gαs
  stimulation of 35S-GTPγS binding to Gs: only background stimulation

## KSVSFYTRKDGQLIYT [ic1(1-16), PS-1 cytoplasmic loop 1 peptide]
Gαs
  stimulation of 35S-GTPγS binding to Gs: not

## β-APPs: water-soluble β-APP ectodomain, baculovirus-derived, purified or partially purified
[2]
  transient increase in protein tyrosine kinase activity after cell mixing: specifically inhibited; also recorded: no increase; also recorded: none of the increases
Gαo [3]; PS-1-only APP-/- fibroblast cultures, increasing β-APPs, 15 mins
  35S-GTPγS incorporation: increased ^35S-GTPgS incorporation in a dose-dependent manner
Gαo [3]; PS-1-only APP-/- fibroblasts, 120 pM β-APPs
  maximum increase in incorporation of 35S-GTPγS: over 500%
Gαo [3]; untransfected APP-/- fibroblasts expressing only endogenous PS
  35S-GTPγS incorporation: modest G-protein activation; also recorded: only modest increases
Gαo [3]; untransfected ES (PS-/-) cells
  35S-GTPγS incorporation: no increase; also recorded: no significant increases
G-protein Go; PS-depleted rat membranes (pre-treated with polyclonal Ab to PS-1 and PS-2)
  35S-GTPγS incorporation: did not occur; also recorded: no increase
G-protein Go; rat hippocampal membranes, 80 pM β-APPs
  incorporation of 35S-GTPγS greater than untreated samples: 100%
G-protein Go; rat hippocampal membranes, 400 pM β-APPs
  increase in G-protein Go activation: greater than 600%
G-protein Go; solubilized rat hippocampal membranes (100 μg), 0-400 pM β-APPs, 15 min
  35S-GTPγS incorporation: increased ^35S-GTPgS incorporation in a dose-dependent manner

## N-terminal domain of PS-1 fused to FLAG: fusion protein with FLAG attached at the N-terminus of the PS-1 N-terminal domain, grown in DH5α bacteria
[2]
  transient increase in protein tyrosine kinase activity after cell mixing: specifically inhibited; also recorded: none of the increases
[2]; listed as FLAG reporter fused to the N-terminal domain of PS-1
  transient increase in protein tyrosine kinase activity after cell mixing: no increase

## PFTEDTETVGQRALHS [ic1(17-32), PS-1 cytoplasmic loop 1 peptide]
Gαs
  stimulation of 35S-GTPγS binding to Gs: induced stimulation

## DEEEDEEL [Peptide 8, 8-mer of the PS-1 N-terminal domain]
Aβ production
  cell-cell interaction and Aβ production, ELISA: inhibits

## RRSLGHPEPLSNGRP [Peptide 4, 15-mer of the PS-1 N-terminal domain]
Aβ production
  cell-cell interaction and Aβ production, ELISA: inhibits
